# Assay results taken from patent publication US8716292B2, “Riminophenazines with 2-(heteroaryl)amino substituents and their anti-microbial activity” (priority 2010, dated 2014).
# Test system: Mycobacterium tuberculosis H37Rv strains
# Assay: In vitro assay for antimicrobial susceptibility (microplate Alamar blue MIC)
# Format: cell-based
# Settings: Mycobacterium tuberculosis, H37RV, 7H9, Alamar blue, inhibition ≧90%; read-out: MIC (μg/mL) against H37Rv
row,SMILES,MIC [µg/mL]
1,"N#Cc1cccnc1Nc1cc2nc3ccccc3n(-c3ccc(F)cc3)c-2c/c1=N\C1CCOCC1 [TBI-1086, 5-(4-Fluorophenyl)-3-(4-tetrahydropyranyl)imino-2-(3-cyano-2-pyridyl)amino-3,5-dihydrophenazine]",0.04
2,"FC(F)(F)Oc1ccc(-n2c3c/c(=N\C4CCOCC4)c(Nc4ncccn4)cc-3nc3ccccc32)cc1 [TBI-830, 5-(4-Trifluoromethoxyphenyl)-3-(4-tetrahydropyranyl)imino-2-(pyrimidin-2-yl)amino-3,5-dihydrophenazine]",0.014

# Same assay, conditions: Mycobacterium tuberculosis, H37RV, in vitro, Mycobacterium tuberculosis H37Rv strains; read-out: MIC (μg/mL) against H37Rv
row,SMILES,MIC [µg/mL]
1,"Cc1ccc(Nc2cc3nc4ccccc4n(-c4ccc(C(F)(F)F)cc4)c-3c/c2=N\C2CCOCC2)cn1 [TBI-696, 5-(4-Trifluoromethylphenyl)-3-(4-tetrahydropyranyl)imino-2-(6-methyl-3-pyridyl)amino-3,5-dihydrophenazine]",0.032
2,"FC(F)(F)c1ccc(-n2c3c/c(=N\C4CCN(C5CCCC5)CC4)c(Nc4cccnc4)cc-3nc3ccccc32)cc1 [TBI-691, 5-(4-Trifluoromethylphenyl)-3-(N-cyclopentyl-4-piperidyl)imino-2-(3-pyridyl)amino-3,5-dihydrophenazine]",0.06
3,"COc1ncccc1Nc1cc2nc3ccccc3n(-c3ccc(NC(C)=O)cc3)c-2c/c1=N\C1CC1 [TBI-1221, 5-(4-Acetamidophenyl)-3-cyclopropylimino-2-(2-methoxy-3-pyridyl)amino-3,5-dihydrophenazine]",0.9
4,"Cc1ccc(-n2c3c/c(=N\C4CCCCC4)c(Nc4ccc(C)nc4)cc-3nc3ccccc32)cc1 [TBI-306, 5-(4-Methylphenyl)-3-cyclohexylimino-2-(6-methyl-3-pyridyl)amino-3,5-dihydrophenazine]",0.106
5,"COc1ccc(Nc2cc3nc4ccccc4n(-c4ccccc4)c-3c/c2=N\C2CCC2)cn1 [TBI-512, 5-Phenyl-3-cyclobutylimino-2-(6-methoxy-3-pyridyl)amino-3,5-dihydrophenazine]",0.41
6,"COc1ncccc1Nc1cc2nc3ccccc3n(-c3ccc(OC(F)(F)F)cc3)c-2c/c1=N\C1CCOCC1 [TBI-167, 5-(4-Trifluoromethoxyphenyl)-3-(4-tetrahydropyranyl)imino-2-(2-methoxy-3-pyridyl)amino-3,5-dihydrophenazine]",0.016
7,"COc1ncccc1Nc1cc2nc3ccccc3n(-c3ccc(C)cc3)c-2c/c1=N\C(C)C [TBI-308, 5-(4-Methylphenyl)-3-(1-methylethyl)imino-2-(2-methoxy-3-pyridyl)amino-3,5-dihydrophenazine]",0.125
8,"CC(C)/N=c1\cc2n(-c3ccc(F)cc3)c3ccccc3nc-2cc1Nc1cccnc1 [TBI-679, 5-(4-Fluorophenyl)-3-(1-methylethyl)imino-2-(3-pyridyl)amino-3,5-dihydrophenazine]",0.03
9,"COC1CCC(/N=c2\cc3n(-c4ccccc4)c4ccccc4nc-3cc2Nc2cncc(C)c2)CC1 (stereo not shown) [TBI-084, 5-Phenyl-3-(4-methoxycyclohexyl)imino-2-(5-methyl-3-pyridyl)amino-3,5-dihydrophenazine]",0.059
10,"Cc1cncc(Nc2cc3nc4ccccc4n(-c4ccccc4)c-3c/c2=N\C2CCCCC2)c1 [TBI-082, 5-Phenyl-3-cyclohexylimino-2-(5-methyl-3-pyridyl)amino-3,5-dihydrophenazine]",0.111
11,"COCC(COC)/N=c1\cc2n(-c3ccc(Cl)c(Cl)c3)c3ccccc3nc-2cc1Nc1cccnc1OC [TBI-375, 5-(3,4-Dichlorophenyl)-3-(1,3-dimethoxyisopropyl)imino-2-(2-methoxy-3-pyridyl)amino-3,5-dihydrophenazine]",0.125
12,"Cc1cncc(Nc2cc3nc4ccccc4n(-c4ccc(C(F)(F)F)cc4)c-3c/c2=N\C2CCC(O)CC2)c1 (stereo not shown) [TBI-727, 5-(4-Trifluoromethylphenyl)-3-(4-hydroxycyclohexyl)imino-2-(5-methyl-3-pyridyl)amino-3,5-dihydrophenazine]",0.405
13,"COc1ncccc1Nc1cc2nc3ccccc3n(-c3ccc(C)cc3)c-2c/c1=N\C1CC1 [TBI-339, 5-(4-Methylphenyl)-3-cyclopropylimino-2-(2-methoxy-3-pyridyl)amino-3,5-dihydrophenazine]",0.033
14,"COCC(C/N=c1\cc2n(-c3ccc(F)cc3)c3ccccc3nc-2cc1Nc1cccnc1OC)OC (stereo not shown) [TBI-1049, 5-(4-Fluorophenyl)-3-(2,3-dimethoxy-1-propyl)imino-2-(2-methoxy-3-pyridyl)amino-3,5-dihydrophenazine]",0.162
15,"COc1ncccc1Nc1cc2nc3ccccc3n(-c3cccc(Cl)c3)c-2c/c1=N\C1CCOCC1 [TBI-822, 5-(3-Chlorophenyl)-3-(4-tetrahydropyranyl)imino-2-(2-methoxy-3-pyridyl)amino-3,5-dihydrophenazine]",0.125
16,"COc1ncccc1Nc1cc2nc3ccccc3n(-c3ccccc3)c-2c/c1=N\C(C)C [TBI-061, 5-Phenyl-3-(1-methylethyl)imino-2-(2-methoxy-3-pyridyl)amino-3,5-dihydrophenazine]",0.06
17,"Clc1ccc(-n2c3c/c(=N\C4CC4)c(Nc4cccnc4)cc-3nc3ccccc32)c(Cl)c1 [TBI-367, 5-(2,4-Dichlorophenyl)-3-cyclopropylimino-2-(3-pyridyl)amino-3,5-dihydrophenazine]",0.023
18,"Cc1ccc(Nc2cc3nc4ccccc4n(-c4ccccc4)c-3c/c2=N\C2CCOCC2)cn1 [TBI-070, 5-Phenyl-3-(4-tetrahydropyranyl)imino-2-(6-methyl-3-pyridyl)amino-3,5-dihydrophenazine]",0.08

row,SMILES,MIC [µg/mL]
1,"O[C@H]1CC[C@H](/N=c2\cc3n(-c4cccc(Cl)c4)c4ccccc4nc-3cc2Nc2cccnc2)CC1 [TBI-811, 5-(3-Chlorophenyl)-3-(1′,4′-trans-4-hydroxycyclohexyl)imino-2-(3-pyridyl)amino-3,5-dihydrophenazine]",0.5
2,"Cc1ccc(-n2c3c/c(=N\C4CCC(O)CC4)c(Nc4cccnc4)cc-3nc3ccccc32)cc1 (stereo not shown) [TBI-338, 5-(4-Methylphenyl)-3-(4-hydroxycyclohexyl)imino-2-(3-pyridyl)amino-3,5-dihydrophenazine]",0.5
3,"Cc1ccc(Nc2cc3nc4cc(F)ccc4n(-c4ccc(OC(F)(F)F)cc4)c-3c/c2=N\C2CC2)cn1 [TBI-864, 8-Fluoro-5-(4-trifluoromethoxyphenyl)-3-cyclopropylimino-2-(6-methyl-3-pyridyl)amino-3,5-dihydrophenazine]",0.057
4,"Fc1ccc(-n2c3c/c(=N\C4CC4)c(Nc4cccnc4)cc-3nc3ccccc32)cc1 [TBI-922, 5-(4-Fluorophenyl)-3-cyclopropylimino-2-(3-pyridyl)amino-3,5-dihydrophenazine]",0.012
5,"COc1ccc(Nc2cc3nc4ccccc4n(-c4ccc(C(F)(F)F)cc4)c-3c/c2=N\C2CCOCC2)cn1 [TBI-733, 5-(4-Trifluoromethylphenyl)-3-(4-tetrahydropyranyl)imino-2-(6-methoxy-3-pyridyl)amino-3,5-dihydrophenazine]",0.111
6,"Cc1ccc(Nc2cc3nc4ccccc4n(-c4ccc(F)cc4)c-3c/c2=N\[C@H]2CC[C@H](O)CC2)cn1 [TBI-906, 5-(4-Fluorophenyl)-3-(1′,4′-trans-4-hydroxycyclohexyl)imino-2-(6-methyl-3-pyridyl)amino-3,5-dihydrophenazine]",0.5
7,"Fc1ccc(-n2c3c/c(=N\C4CCC4)c(Nc4cccnc4)cc-3nc3ccccc32)cc1F [TBI-526, 5-(3,4-Difluorophenyl)-3-cyclobutylimino-2-(3-pyridyl)amino-3,5-dihydrophenazine]",0.079
8,"COC1CCC(/N=c2\cc3n(-c4ccc(Cl)cc4)c4ccc(F)cc4nc-3cc2Nc2ccc(C)nc2)CC1 (stereo not shown) [TBI-938, 8-Fluoro-5-(4-chlorophenyl)-3-(4-methoxycyclohexyl)imino-2-(6-methyl-3-pyridyl)amino-3,5-dihydrophenazine]",0.125
9,"COc1ncccc1Nc1cc2nc3ccccc3n(-c3ccc(F)cc3)c-2c/c1=N\C1CCC1 [TBI-1016, 5-(4-Fluorophenyl)-3-cyclobutylimino-2-(2-methoxy-3-pyridyl)amino-3,5-dihydrophenazine]",0.037
10,"Fc1ccc(-n2c3c/c(=N\C4CCN(C5CCCC5)CC4)c(Nc4cccnc4)cc-3nc3ccccc32)cc1 [TBI-684, 5-(4-Fluorophenyl)-3-(N-cyclopentyl-4-piperidyl)imino-2-(3-pyridyl)amino-3,5-dihydrophenazine]",0.5
11,"COc1ncccc1Nc1cc2nc3ccccc3n(-c3ccc(C)cc3)c-2c/c1=N\C1CCOCC1 [TBI-310, 5-(4-Methylphenyl)-3-(4-tetrahydropyranyl)imino-2-(2-methoxy-3-pyridyl)amino-3,5-dihydrophenazine]",0.03
12,"CC(C)/N=c1\cc2n(-c3ccc(Cl)cc3Cl)c3ccccc3nc-2cc1Nc1cccnc1 [TBI-363, 5-(2,4-Dichlorophenyl)-3-(1-methylethyl)imino-2-(3-pyridyl)amino-3,5-dihydrophenazine]",0.03
13,"Cc1ccc(Nc2cc3nc4ccccc4n(-c4ccc(C(F)(F)F)cc4)c-3c/c2=N\C2CCN(C)CC2)cn1 [TBI-697, 5-(4-Trifluoromethylphenyl)-3-(N-methyl-4-piperidyl)imino-2-(6-methyl-3-pyridyl)amino-3,5-dihydrophenazine]",0.053
14,"COc1ncccc1Nc1cc2nc3ccccc3n(-c3cccc(Cl)c3)c-2c/c1=N\C1CCC1 [TBI-824, 5-(3-Chlorophenyl)-3-cyclobutylimino-2-(2-methoxy-3-pyridyl)amino-3,5-dihydrophenazine]",0.06
15,Cc1cncc(Nc2cc3nc4ccccc4n(-c4ccc(F)cc4)c-3c/c2=N\C2CCC2)c1 [TBI-1031],0.028
16,"COc1ccc2nc3cc(Nc4cccnc4OC)/c(=N/C4CCOCC4)cc-3n(-c3ccc(Cl)cc3)c2c1 [TBI-942, 7-Methoxy-5-(4-chlorophenyl)-3-(4-tetrahydropyranyl)imino-2-(2-methoxy-3-pyridyl)amino-3,5-dihydrophenazine]",0.125
17,"COc1ncccc1Nc1cc2nc3ccccc3n(-c3ccc(C(F)(F)F)cc3)c-2c/c1=N\C1CCOCC1 [TBI-701, 5-(4-Trifluoromethylphenyl)-3-(4-tetrahydropyranyl)imino-2-(2-methoxy-3-pyridyl)amino-3,5-dihydrophenazine]",0.016
